From US20260097060A1, “PHARMACEUTICAL COMPOSITION COMPRISING ENAVOGLIFLOZIN FOR PREVENTING OR TREATING CARDIOVASCULAR AGING DISEASES” (DAEWOONG PHARMACEUTICAL CO., LTD., priority 2022, published 2026)

Assays:
[1] = system: porcine coronary artery rings; assay: Evaluation of vascular function (bradykinin-induced relaxation of coronary artery rings, organ chamber); conditions: for bradykinin concentration at which vasorelaxation was significantly increased compared to nanoplastics alone: nanoplastics + 1 μM test drug
Method: Vascular endothelial cells play an important role in maintaining vascular homeostasis, but senescence is known to cause vascular dysfunction. Therefore, vascular reactivity of vascular endothelial cells was evaluated to see whether enavogliflozin prevents vascular dysfunction caused by the exposure to nanoplastics. In addition, the evaluation was performed together with the competing material, empagliflozin, and thus their effects were compared.
Specifically, the left anterior descending coronary artery of the porcine heart was resected into rings with a size of 2 to 3 mm. An experiment was conducted with a control, a group treated with 10 µg/mL of nanoplastics, groups treated with […] of nanoplastics+different concentrations of enavogliflozin (0.01, 0.1, and 1 μM), and a group treated with 10 µg/mL of nanoplastics+[…] empagliflozin. The coronary artery rings were placed in Crabb's solution at 37° C. in an organ chamber (95% 02, 5% CO2) to measure changes in isometric tension. The viability of each coronary ring was confirmed by constant […] loading at 5 g for 90 minutes and repeated contractions with up to 80 mM KCl. After washing for 30 minutes, the coronary artery rings were constricted to approximately 80% (maximum contraction) using the thromboxane mimetic U46619 and treated with bradykinin. The relaxation rate of blood vessels in relation to the concentration of bradykinin was then calculated. The results are shown in the graph of FIG. 10.
For statistical data analysis, Prism 5.03 software (GraphPad Software Inc., San Diego, CA, USA) was used. The test results are expressed as the mean±standard error of the mean (SEM). The statistical method was to conduct a two-way ANOVA to verify the difference between groups, and a post hoc test for each type was performed using the verification method with the Bonferroni function. The significance level was set to be p<0.05.
Bradykinin is a biomaterial, and when a bradykinin receptor is activated, endothelial nitric oxide synthase (eNOS) is activated, releasing nitric oxide (NO) and relaxing blood vessels.

[2] = Dissolution test (Korean Pharmacopoeia method 2, paddle method); format: physicochemical
Method: Since the dissolution rate of the active ingredient in the pharmaceutical composition affects the maximum blood concentration (Cmax) and the blood concentration-area under the blood concentration-time curve (AUC) when administering the drug, to achieve appropriate Cmax and AUC, it is important to adjust the dissolution rate of the pharmaceutical composition. Since enavogliflozin has a Tmax of 1 to 2 hours, the drug absorption rate in the stomach is considered important. The above dissolution rate was measured under the condition of the dissolved solution 1.2 in accordance with the dissolution test method 2 of the Korean Pharmacopoeia (paddle method). For specific conditions, refer to the following experimental examples.

eNOS = assay: Measurement of expression of eNOS (western blot); format: cell-based, porcine; conditions: nanoplastics + enavogliflozin 0.01, 0.1 and 1 μM, 24 hours
Method: Reduced eNOS expression is a common feature in endothelial senescence, and is known to cause endothelial dysfunction. Here, the expression of eNOS was measured, thereby confirming that enavogliflozin improves the damage to the endothelial function caused by the exposure to nanoplastics.
Specifically, the cells were seeded at 1×10^5 cells/well in a 6-well plate. The cells were cultured in DMEM containing 10% FBS, penicillin (100 U/mL), streptomycin (100 U/mL), and fungizone ([…]) in a CO2 incubator at 37° C. […]
To lyse the porcine coronary artery endothelial cells, 1×RIPA buffer was added to each well and the cells were lysed for 10 minutes. […] Protein quantification of the obtained cell lysate was measured using Bio-Rad DC protein reagent. […]
After eNOS (1:1,000) and 3-actin (1:1,000) as primary antibodies were reacted at 4° C. for 24 hours, the resulting product was washed 3 to 5 times with 1×TBS-T buffer for 10 minutes. […] Protein bands were treated with an ECL solution and detected using Amersham imager 680.
(§1) For statistical data analysis, Prism 5.03 software (GraphPad Software Inc., San Diego, CA, USA) was used. The test results are expressed as the mean±standard error of the mean (SEM). […]

[3] = system: Nox2 and p22phox, membrane catalytic subunits of NADPH oxidase; assay: Expression of oxidative stress-associated markers (western blot); format: cell-based, porcine; conditions: nanoplastics + enavogliflozin 0.01, 0.1 and 1 μM, 24 hours
Method: In the porcine coronary artery endothelial cells, it is known that NADPH oxidase produces a peroxide in endothelial cells to cause cellular senescence and endothelial dysfunction. Oxidative stress in cells was assessed by measuring the expression of Nox2 and p22phox, which are membrane catalytic subunits of the NAPDH oxidase.
(§2) Specifically, the cells were seeded at 1×10^5 cells/well in a 6-well plate. The cells were incubated in DMEM containing 10% FBS, penicillin (100 U/mL), streptomycin (100 U/mL), and fungizone ([…]) in a CO2 incubator at 37° C. The cells were divided into a control, a group treated with 10 µg/mL of nanoplastics, and groups treated with nanoplastics+different concentrations of enavogliflozin (0.01, 0.1, and 1 μM), treated with a sample, and then incubated for 24 hours.
To lyse the porcine coronary artery endothelial cells, 1×RIPA buffer was added to each well and the cells were lysed for 10 minutes. The cells were scraped with a scraper and centrifuged at 14,000 rpm and 4° C. for 15 minutes. Protein quantification of the obtained cell lysate was measured using Bio-Rad DC protein reagent. Analysis was performed by equally loading […] of protein. […]
as §1

[4] = system: reactive oxygen species (ROS); assay: Evaluation of oxidative stress (ROS, DCF-DA and DHE fluorescence); format: cell-based, porcine; conditions: 10 µg/mL nanoplastics + enavogliflozin 0.01, 0.1 and 1 μM
Method: Oxidative stress was measured using dihydroethidium (DHE) and 2′,7′-dichlorodihydrofluorescein diacetate (DCF-DA).
Specifically, porcine coronary artery endothelial cells were seeded at 1×10^4 cells/well in a black 96-well plate. The cells were divided into a control, a group treated with 10 µg/mL of nanoplastics, and groups treated with 10 µg/mL of the nanoparticles+different concentrations of enavogliflozin (0.01, 0.1, and 1 μM) to perform the experiment. The cells were incubated in DMEM containing 10% FBS, penicillin (100 U/mL), streptomycin (100 U/mL), and fungizone ([…]) in a CO2 incubator at 37° C. After 24-hour incubation, the amount of reactive oxygen species (ROS) produced was measured by fluorescent absorbance (excitation/emission 485/535 nm).
To measure the ROS produced also in the coronary artery rings, the coronary artery rings were treated with samples for each group, and immersed in a frame containing an OCT solution (Leica Biosystems) and frozen in liquid nitrogen. The frozen result was cut into […] sections using a cryotome, and the sections were stained with DHE (10 μM) and incubated at 37° C. for 45 minutes, washed with PBS, and then observed using a fluorescence microscope.
as §1

[5] = system: cellular senescence markers p53 and p21; assay: Expression of endothelial cell senescence markers (western blot); format: cell-based, porcine; conditions: nanoplastics + enavogliflozin 0.01, 0.1 and 1 μM, 24 hours
Method: The expression of cellular senescence markers p53 and p21 was confirmed in porcine coronary artery endothelial cells.
as §2, with “were cultured” for “were incubated”, “10 μg/mL” for “10 µg/mL”, “with the nanoparticles+different” for “with nanoplastics+different”, “μM), and then the cells were” for “μM),”, “with samples” for “with a sample,”, “and” for “and then”
To lyse the porcine coronary artery endothelial cells, 1×RIPA buffer was added to each well and the cells were lysed for 10 minutes. The cells were scraped with a scraper and centrifuged at 14,000 rpm and 4° C. for 15 minutes. Protein quantification of the obtained cell lysate was measured using Bio-Rad DC protein reagent. Analysis was performed by equally loading 15 g of protein.
After reacting with p53 (1:1,000), p21 (1:1,000), and β-actin (1:1,000) as primary antibodies at 4° C. for 24 hours, the cells were washed 3 to 5 times with 1×TBS-T buffer for 10 minutes. […]
as §1

[6] = system: porcine coronary artery rings and coronary artery-derived endothelial cells; assay: Evaluation of β-galactosidase (SA-β-Gal) activity (X-gal staining); format: cell-based; conditions: 10 µg/mL nanoplastics + enavogliflozin 0.01, 0.1 and 1 μM, 24 hours, vs nanoplastics
Method: Senescence-related β-galactosidase (SA-β-Gal) activity is the characteristic of senescent cells, and used as a histochemical marker for senescence.
Specifically, the porcine coronary artery was cut into a size of 2 to 3 mm to form coronary artery rings. Next, the coronary artery rings were divided into a control, a group treated with 10 µg/mL of nanoplastics, and groups treated with 10 µg/mL of the nanoparticles+different concentrations of enavogliflozin (0.01, 0.1, and 1 μM) to perform the experiment. After 24-hour culture, the cells were fixed with 4% formaldehyde, and stained with an X-gal dye to allow a reaction for one day.
Subsequently, the coronary artery rings were immersed in an optimal cutting temperature (OCT) solution (Leica Biosystems) and cut to 10 μm sections using a cryotome at −25° C. and observed under a microscope. The results are shown in the photograph in FIG. 5. In addition, the evaluation of β-galactosidase activity in endothelial cells derived from the porcine coronary artery is as follows. […]
as §1

[7] = system: porcine coronary artery endothelial cells; assay: Evaluation of cell proliferation effect (MTS); format: cell-based; conditions: nanoplastics + enavogliflozin 0.01, 0.1 and 1 μM, 24 hours, vs nanoplastics
Method: Cell cycle arrest is one of the main features of cellular senescence. It was confirmed whether enavogliflozin could improve decreased proliferation of endothelial cells, that is, cellular senescence, caused by the exposure to nanoplastics.
Specifically, after extracting the porcine coronary artery, the porcine coronary artery was treated with collagenase for 20 minutes and centrifuged to obtain coronary artery endothelial cells. The cells were seeded at 1×10^4 cells/well in a 96-well plate. The cells were incubated in DMEM containing 10% FBS, penicillin (100 U/mL), streptomycin (100 U/mL), and fungizone ([…]) in a 5% CO2 incubator at 37° C. The cells were divided into a control, a group treated with 10 µg/mL of nanoplastics, and groups treated with the nanoparticles+different concentrations of enavogliflozin (0.01, 0.1, and 1 μM) to perform the experiment, and the cell proliferation effect was measured using a CellTiter 96 Aqueous One Solution Cell Proliferation Assay (Promega Corporation, USA) kit. Samples were treated and incubated for 24 hours, and treated with an MTS tetrazolium solution (20 μL/well) to allow a reaction for 3 hours, and then absorbance was measured at 490 nm using an Enspire Multilabel Reader (Perkin Elmer Ltd.).
For statistical data analysis, Prism 5.03 software (GraphPad Software Inc., San Diego, CA, USA) was used. […]

Pharmacokinetics (Tmax) = format: in vivo; conditions: blood, oral

| SMILES | bradykinin concentration at which vasorelaxation was significantly increased compared to nanoplastics alone [1] [nM] | 30-minute dissolution rate ([2]; average particle size of enavogliflozin) | 5-minute dissolution rate ([2]; average particle size of enavogliflozin greater than 15 m) | eNOS expression (eNOS) | expression of Nox2 [3] | expression of p22phox [3] | fluorescence intensity of DCF-DA (ROS production) [4] | fluorescence intensity of DHE (ROS production) [4] | expression of p21 protein [5] | expression of p53 protein [5] | bradykinin-induced vasorelaxation ([1]; 10 µg/mL nanoplastics + enavogliflozin 0.01, 0.1 and 1 μM, vs nanoplastics alone) | β-galactosidase (SA-β-Gal) activity [6] | cell proliferation [7] | Tmax (Pharmacokinetics (Tmax)) [h] |
| --- | --- | --- | --- | --- | --- | --- | --- | --- | --- | --- | --- | --- | --- | --- |
| OC[C@H]1O[C@@H](c2ccc(Cl)c(Cc3ccc(O[C@H]4CCOC4)cc3)c2)[C@H](O)[C@@H](O)[C@@H]1O [empagliflozin, reference compound] | ≥ 30 | – | – | – | – | – | – | – | – | – | – | – | – | – |
| OC[C@H]1O[C@@H](c2cc(Cc3ccc(C4CC4)cc3)c(Cl)c3c2CCO3)[C@H](O)[C@@H](O)[C@@H]1O [enavogliflozin] | ≥ 0.3 | less than 80% | less than 40 % of the total content of enavogliflozin | significantly increase | significantly decreased in a concentration-dependent manner | significantly decreased in a concentration-dependent manner | significantly decreased | significantly decreased | significantly decreased in a concentration-dependent manner | significantly decreased in a concentration-dependent manner | significantly increased | significantly reduced | improved | 1 to 2 |
